Test results published in patent publication US8587857B2, “Electro-wetting display device and non-polar color solution thereof” (Industrial Technology Research Institute, priority 2010, dated 2013).

Test: solubility of dye in dodecane non-polar solvent, with or without trimethylbenzene (TMB) improvement agent
Type: physicochemical
Procedure: For example, when a red dye (for example, the C.I. solvent red 164) is dissolved in a dodecane non-polar solvent, a solubility thereof is about 4 wt %.
For another example, when a blue dye (for example, the C.I. solvent blue 98) is dissolved in the dodecane non-polar solvent, a solubility thereof is about 8 wt %.

C.I. solvent blue 98
solubility (dye dissolved in dodecane non-polar solvent added with trimethylbenzene (TMB) improvement agent): 21.5 wt %
solubility (dye dissolved in dodecane non-polar solvent, no improvement agent): about 8 wt %
